# Target: recombinant USP30 (amino acids 57-517 of the human sequence) (Homo sapiens (Human), UniProt Q70CQ3)
# Assay: In vitro USP30 biochemical assay (Ubiquitin-Rhodamine substrate)
# Conditions: 1.5 nM recombinant USP30, 25 nM Ubiquitin-Rhodamine, fluorescence
# Protocol: In vitro biochemical assay to establish the potency of compounds for USP30 inhibition: a 384-well plate assay using a fluorophore tagged substrate of USP30 was used for in vitro screening of compounds. Each compound was tested at
# 10 different concentrations (0.5 to 10,000 nM) in duplicate wells. […] Data were analyzed using Graph Pad Prism software with a four-parameter (floating slope) fit to log concentration data to determine IC50s.
# Chain of recombinant USP30 (amino acids 57-517 of the human sequence) (Q70CQ3 57-517): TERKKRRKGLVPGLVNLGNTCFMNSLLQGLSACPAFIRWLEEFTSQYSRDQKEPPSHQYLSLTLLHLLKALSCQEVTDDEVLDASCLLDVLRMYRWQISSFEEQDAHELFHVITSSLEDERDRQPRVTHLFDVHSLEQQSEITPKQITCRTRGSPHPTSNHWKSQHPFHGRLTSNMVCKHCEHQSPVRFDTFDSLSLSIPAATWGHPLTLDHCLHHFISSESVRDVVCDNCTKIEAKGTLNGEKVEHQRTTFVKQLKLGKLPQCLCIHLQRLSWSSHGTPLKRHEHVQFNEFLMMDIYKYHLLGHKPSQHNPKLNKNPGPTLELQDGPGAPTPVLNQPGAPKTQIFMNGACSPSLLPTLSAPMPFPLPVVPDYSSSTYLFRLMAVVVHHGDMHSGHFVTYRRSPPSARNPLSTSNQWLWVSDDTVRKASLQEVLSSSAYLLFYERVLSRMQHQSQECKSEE
row,IC50 [µM],SMILES
1,0.05 to 1,CC(C)(C)NS(=O)(=O)c1cccc2c(NC(=O)[C@H](Cc3ccccc3)NC(=O)N3CCOCC3)cccc12 [Compound I-195]
2,1 to 10,COCC[C@H](NC(=O)c1ccc(F)cc1)C(=O)Nc1ccc(S(=O)(=O)NC2COC2)cc1 [Compound I-28]
3,0.05 to 1,CC(C)C[C@H](NC(=O)c1ccc(F)cc1)C(=O)Nc1ccc(S(=O)(=O)NCc2ccnn2C)cc1 [Compound I-225]
4,0.05 to 1,CC(C)(C)NS(=O)(=O)c1ccc(NC(=O)[C@@H]2C[C@@H](C3CCCCC3)CN2C(=O)c2ccc(F)cc2)cc1 [Compound I-253]
5,1 to 10,CC(C)(C)NS(=O)(=O)c1ccc(NC(=O)[C@@H](NC(=O)c2ccc(F)cc2)C(C)(C)C)cc1 [Compound I-77]
6,1 to 10,COc1cc(NC(=O)[C@H](CC2CCOCC2)NC(=O)c2ccc(F)cc2)cnc1S(=O)(=O)NC1CCN(C)CC1 [Compound I-83]
7,0.05 to 1,COc1cc(NC(=O)[C@H](CC2CCNCC2)NC(=O)c2ccc(F)cc2)ccc1S(=O)(=O)NC1CCOCC1 [Compound I-135]
8,0.05 to 1,COc1cc(NC(=O)[C@@H]2C[C@@H](C3CCCCC3)CN2C(=O)c2ccc(F)cc2)ccc1S(=O)(=O)NC(C)(C)C [Compound I-257]
9,0.05 to 1,COCCC(C)(C)NS(=O)(=O)c1ccc(NC(=O)[C@H](CC2CCOCC2)NC(=O)c2ccc(F)cc2)cc1 [Compound I-7]
10,1 to 10,N#CN1CC[C@H](NC(=O)[C@H](Cc2ccccc2)NC(=O)c2ccc(F)cc2)C1 [Compound I-123]
11,0.05 to 1,CC(C)(CF)NS(=O)(=O)c1ccc(NC(=O)[C@H](Cc2ccccn2)NC(=O)c2ccc(F)cc2)cc1 [Compound I-213]
12,0.05 to 1,CC(C)(CN1CCOCC1)NS(=O)(=O)c1ccc(NC(=O)[C@H](CC2CC2)NC(=O)c2ccc(F)cc2)cc1 [Compound I-47]
13,1 to 10,CC(C)(C)NS(=O)(=O)c1ccc(NC(=O)[C@H](CC2CCNCC2)NC(=O)N2CCOCC2)cc1 [Compound I-215]
14,0.05 to 1,CN1CCC(C[C@H](NC(=O)c2ccc(F)cc2)C(=O)Nc2ccc(S(=O)(=O)NC(C)(C)CO)cc2)CC1 [Compound I-44]
15,0.05 to 1,O=C(N[C@@H](Cc1ccccc1)C(=O)Nc1ccc(S(=O)(=O)NCc2cnc[nH]2)cc1)c1ccc(F)cc1 [Compound I-239]
16,1 to 10,CC(C)(C)NS(=O)(=O)c1ccc(NC(=O)[C@H](Cc2ccccc2)NC(=O)c2cc[nH]n2)cc1 [Compound I-178]
17,0.05 to 1,O=C(N[C@@H](Cc1ccccc1)C(=O)Nc1ccc(S(=O)(=O)NCc2ccncn2)cc1)c1ccc(F)cc1 [Compound I-222]
18,1 to 10,CC(=O)O[C@@H]1C[C@@H](C(=O)Nc2ccc(S(=O)(=O)N[C@@H]3CCOC3)cc2)N(C(=O)c2ccc(F)cc2)C1 [Compound I-286]
19,0.05 to 1,CCNS(=O)(=O)c1cccc2c(NC(=O)[C@H](CC3CCOCC3)NC(=O)c3ccc(F)cc3)cccc12 [Compound I-9]
20,1 to 10,CC(C)(C)NS(=O)(=O)c1ccc(NC(=O)[C@H](Cc2ccccc2)NC(=O)C2CCNCC2)cc1 [Compound I-192]
21,1 to 10,"O=C(N[C@H](C(=O)Nc1ccc(S(=O)(=O)NC2COC2)cc1)C1CC1)c1ccc(F)cc1 [Compound I-54, (S)—N-(1-cyclopropyl-2-((4-(N-(oxetan-3-yl)sulfamoyl)phenyl)amino)-2-oxoethyl)-4-fluorobenzamide]"
22,0.05 to 1,CN(C)CC[C@H](NC(=O)c1ccc(F)cc1)C(=O)Nc1ccc(S(=O)(=O)NC(C)(C)C)cc1 [Compound I-240]
23,1 to 10,CC(C)(CO)NS(=O)(=O)c1ccc(NC(=O)[C@@H]2C[C@@H](C3CCCCC3)CN2C(=O)c2ccc(F)cc2)cn1 [Compound I-258]
24,1 to 10,COC[C@H](NC(=O)c1ccc(F)cc1)C(=O)Nc1ccc(S(=O)(=O)NC2COC2)cc1 [Compound I-34]
25,1 to 10,O=C(N[C@@H](CCO)C(=O)Nc1ccc(S(=O)(=O)NC2COC2)cc1)c1ccc(F)cc1 [Compound I-31]

# The remaining lines, values behind:
row,SMILES,IC50 [µM]
1,COc1cc(NC(=O)[C@H](CC(C)C)NC(=O)c2ccc(F)cc2)ccc1S(=O)(=O)NC(C)(C)C [Compound I-13],0.05 to 1
2,COc1cc(NC(=O)[C@H](CC2CCN(C)CC2)NC(=O)c2ccc(F)cc2)cnc1S(=O)(=O)NC(C)(C)C [Compound I-80],0.05 to 1
3,O=C(NC(CC1CCNCC1)C(=O)Nc1ccc(S(=O)(=O)NC2COC2)cc1)c1ccc(F)cc1 (centres unmarked) [Compound I-120],0.05 to 1
4,CC(C)C[C@H](NC(=O)c1ccc(F)cc1)C(=O)Nc1ccc(S(=O)(=O)NC(C)(C)C(F)(F)F)nc1 [Compound I-203],0.05 to 1
5,CC(C)(NS(=O)(=O)c1ccc(NC(=O)[C@H](CC2CCOCC2)NC(=O)c2ccc(F)cn2)cc1)C(F)(F)F [Compound I-207],0.05 to 1
6,COc1cc(NC(=O)[C@H](Cc2ccccc2)NC(=O)c2ccc(F)cc2)c(Cl)cc1S(=O)(=O)NC(C)(CO)CO [Compound I-142],1 to 10
7,CC(C)(C)NS(=O)(=O)c1ccc(NC(=O)[C@@H]2C[C@@H](C3CCCCC3)CN2C(=O)c2ccc(F)cc2)cn1 [Compound I-260],0.05 to 1
8,O=C(N[C@@H](Cc1ccccc1)C(=O)Nc1ccc(S(=O)(=O)NCc2cnccn2)cc1)c1ccc(F)cc1 [Compound I-223],0.05 to 1
9,CN1CCC(C[C@H](NC(=O)c2ccc(F)cc2)C(=O)Nc2ccc(S(=O)(=O)NCc3ccnn3C)cc2)CC1 [Compound I-231],0.05 to 1
10,CCN1CCC(C[C@H](NC(=O)c2ccc(F)cc2)C(=O)Nc2ccc(S(=O)(=O)NC(C)(C)CO)cc2)CC1 [Compound I-45],0.05 to 1
11,O=C(N[C@@H](CC1CC1)C(=O)Nc1ccc(S(=O)(=O)NC2COC2)cc1)c1ccc(F)cc1 [Compound I-48],1 to 10
12,CC(C)(C)NS(=O)(=O)c1cccc2c(NC(=O)[C@H](Cc3ccccc3)NC(=O)N3CC4(COC4)C3)cccc12 [Compound I-197],0.05 to 1
13,CC(C)(C)NS(=O)(=O)c1ccc(NC(=O)[C@H](CC2CCN(C(=O)OCc3ccccc3)CC2)NC(=O)N2CCOCC2)cc1 [Compound I-214],0.05 to 1
14,"CC(C)(C)NS(=O)(=O)c1ccc(NC(=O)[C@@H]2C[C@@H](c3ccccc3)CN2C(=O)c2ccc(F)cc2)cc1 [Compound I-49, (2S,4S)—N-(4-(N-(tert-butyl)sulfamoyl)phenyl)-1-(4-fluorobenzoyl)-4-phenylpyrrolidine-2-carboxamide]",0.05 to 1
15,COc1cc(NC(=O)[C@H](Cc2ccccc2)NC(=O)c2ccc(F)cc2)c(Cl)cc1S(=O)(=O)NC1(CO)CC1 [Compound I-139],1 to 10
16,"CC(C)(C)NS(=O)(=O)N1CCC(NC(=O)[C@H](Cc2ccccc2)NC(=O)c2ccc(F)cc2)CC1 [Compound I-58, (S)—N-(1-((1-(N-(tert-butyl)sulfamoyl)piperidin-4-yl)amino)-1-oxo-3-phenylpropan-2-yl)-4-fluorobenzamide]",1 to 10
17,COc1cc(NC(=O)[C@H](CC(C)C)NC(=O)c2ccc(F)cc2)ccc1S(=O)(=O)NC(C)(C)CO [Compound I-14],0.05 to 1

# Same assay, conditions: […] recombinant USP30, 25 nM Ubiquitin-Rhodamine, fluorescence
row,IC50 [µM],SMILES
1,1 to 10,O=C(Nc1ccc(S(=O)(=O)N[C@@H]2CCOC2)cc1)[C@@H]1C[C@@H](c2ccccc2)CN1C(=O)c1ccc(F)cc1 [Compound I-92]
2,> 10,CNC(=O)N1CCC(NC(=O)[C@H](Cc2ccccc2)NC(=O)c2ccc(F)cc2)CC1 [Compound I-119]
3,> 10,CC(C)(C)NS(=O)(=O)c1ccc(NC(=O)[C@H](Cc2ccccc2)NC(=O)c2c[nH]cn2)cc1 [Compound I-176]
4,> 10,N#CC1CC[C@@H](NC(=O)[C@H](Cc2ccccc2)NC(=O)c2ccc(F)cc2)C1 (some centres unmarked) [Compound I-246]
5,< 0.05,CC(C)(CCO)NS(=O)(=O)c1ccc(NC(=O)[C@H](CC2CCOCC2)NC(=O)c2ccc(F)cc2)cc1 [Compound I-6]
6,> 10,CC(C)(C)NS(=O)(=O)N1CC[C@@H](NC(=O)[C@H](Cc2ccccc2)NC(=O)c2ccc(F)cc2)C1 [Compound I-162]
7,< 0.05,CC(C)(C)NS(=O)(=O)c1ccc(NC(=O)[C@H](CC2CCOCC2)NC(=O)c2ccc(F)cc2)cn1 [Compound I-4]
8,> 10,N#CN1CCC(NC(=O)[C@H](Cc2ccccc2)NC(=O)c2ccc(F)cc2)CC1 [Compound I-124]
9,< 0.05,CC(C)(C)NS(=O)(=O)c1ccc(NC(=O)[C@H](CC2CCN(c3ccccc3)CC2)NC(=O)c2ccc(F)cc2)cc1 [Compound I-116]
10,> 10,O=C(N[C@@H](Cc1ccccc1)C(=O)N[C@@H]1CCN(S(=O)(=O)NC2CCOC2)C1)c1ccc(F)cc1 (some centres unmarked) [Compound I-170]

# The remaining lines, values behind:
row,SMILES,IC50 [µM]
1,CC(C)(C)NS(=O)(=O)c1cccc2c(NC[C@H](O)[C@H](Cc3ccccc3)NC(=O)c3ccc(F)cc3)cccc12 [Compound I-211],> 10
2,CC(C)C[C@H](NC(=O)c1ccc(F)cc1)C(=O)NC1CN(C#N)C1 [Compound I-251],< 0.05
3,CC(C)C[C@H](NC(=O)c1ccc(F)cc1)C(=O)Nc1ccc(S(=O)(=O)NC(C)(C)C)nc1 [Compound I-16],< 0.05
4,"COc1cc(NC(=O)[C@H](CC2CCOCC2)NC(=O)c2ccc(F)cc2)ccc1S(=O)(=O)NC(C)(C)C [Compound I-2, (S)—N-(1-((4-(N-(tert-butyl)sulfamoyl)-3-methoxyphenyl)amino)-1-oxo-3-(tetrahydro-2H-pyran-4-yl)propan-2-yl)-4-fluorobenzamide]",< 0.05
5,O=C(Nc1ccc(S(=O)(=O)N[C@@H]2CCOC2)cc1)[C@@H]1C[C@H](O)CN1C(=O)c1ccc(F)cc1 [Compound I-282],> 10
6,"CC(C)(C)NS(=O)(=O)c1cccc2c(NC(=O)[C@H](CC3CCOCC3)NC(=O)c3ccc(F)cc3)cccc12 [Compound I-8, (S)—N-(1-((5-(N-(tert-butyl)sulfamoyl)naphthalen-1-yl)amino)-1-oxo-3-(tetrahydro-2H-pyran-4-yl)propan-2-yl)-4-fluorobenzamide]",< 0.05
7,COc1cc(NC(=O)[C@@H]2C[C@@H](C3CCCCC3)CN2C(=O)c2ccc(F)cc2)cnc1S(=O)(=O)NC(C)(C)CO [Compound I-256],> 10

# — US20250162989A1, “USP30 INHIBITORS AND USES THEREOF” (Vincere Biosciences, Inc., priority 2021, published 2025)
